{
  "source": "patent EP2378291A1",
  "about": "“Lacosamide detection assay” (UCB Pharma GmbH, priority 2010, dated 2011)",
  "key": {"[1]": {"test": "Lacosamide plasma concentration of a patient, HPLC-UV assay with internal standard", "type": "in vivo", "conditions": "human, patient taking 100 mg twice a day, sample 7 h after the last administration, read-out: measured lacosamide plasma concentration", "description": "100 µL of plasma are transferred into Eppendorf tubes.\nCalibration samples are added 10 µL working solution.\nStudy samples are added 10 µL of working solution int standard\nAfter mixing 300 µL of methanol were added, the mixture is vortexed again and centrifuged\n10 minutes at room temperature. 70 µL of the supernatant were transferred into a autosamplervial.\n15 µL were injected into the HPLC-system.\nFor calibration the mean response factor for the peakheight ratios at 10 µg/mL was calculated: • RF = peakheight lacosamide/ peakheight int. Std. • Concentration in samples were calculated: 10/RFcalibration*RFsample\nA patient taking 100 mg twice a day is suffering from seizures. A sample is taken 7 h after the last administration of lacosamide. The measured lacosamide plasma concentration is 1.9 µg/mL. The newly requested Cmax is 5 µg/mL, and the new dose has to be dose_new = 100⋅(5⋅e^(-0.05⋅t))/(1.9⋅e^(-0.05⋅1h)) = 195 mg bid (dose has to be doubled) [formula]"}, "[2]": {"test": "Clinical study: saliva and plasma samples taken in parallel, correlation of lacosamide concentrations", "type": "in vivo, human", "conditions": "for Kp: human, saliva", "description": "One embodiment of the present disclosure relates to the use of saliva samples as a tool to assess the concentration of lacosamide in the body of a mammal, particularly a human being. […] Preferably, saliva samples should be taken at least about 1 hour, preferably at least about 2 hours after an actual administration of lacosamide to said mammal to allow a steady state concentration to form, and to allow the proportional distribution of lacosamide into the saliva.\nAccordingly, one embodiment of the current invention relates to the use of a saliva sample to assess the concentration of lacosamide in the body of a mammal, particularly in the plasma of a patient This can be done based on the recognition that the concentration of lacosamide in saliva is about 1.17 times the concentration in plasma. Based on the measurement of lacosamide in saliva, the concentration in plasma can be easily assessed using the equation C plasma= C saliva x about 0.855 (see Example 3 in the experimental part). The determination of lacosamide in saliva should be done in the steady state, which is usually reached after about one hour to two hours after the last drug administration to the mammal/patient from which the saliva sample is to be taken.\nIn a clinical study saliva and plasma samples have been taken in parallel.\nThe concentrations of lacosamide can be calculated using the following equations: Saliva concentration of lacosamide = 0.065 + 1.1697*plasma concentration of lacosamide [formula] Plasma concentration of lacosamide = 0.855*saliva concentration of lacosamide [formula]\nThese equations were validated by comparing measured lacosamide plasma concentrations with plasma concentrations predicted from measured saliva concentrations."}, "[3]": {"test": "Expected plasma Cmax at bid doses, used for individual dose adaptation", "type": "in vivo", "description": "Based on the determination of the actual lacosamide concentration in plasma (Cmessured) measured at time t (in hours after actual administration) and the comparison with the target concentration, an individual dosing may be adapted according to the following formula dose_new = dose_old⋅(Cmax,expected ⋅e^(-0.05⋅t))/(Cmeasured ⋅e^(-0.05⋅1h)) [formula]\nThe expected Cmax is usually at about 5, 10, 15, or 20 µg/mL for dose 100, 200, 300, or 400 mg bid."}},
  "note": "Like-named read-outs stand apart in the source and are kept apart here.",
  "data": [
    {"smiles": "COC[C@@H](NC(C)=O)C(=O)NCc1ccccc1", "note": "[Lacosamide, (R)-2-acetamido-N-benzyl-3-methoxypropionamide]", "values": [
      {"measurement": "concentration at 7 h", "setting": "[1]", "result": 1900, "unit": "ng/mL"},
      {"measurement": "correlation between lacosamide concentrations in saliva and plasma", "setting": "[2]; Figure 2", "result": "excellent correlation"},
      {"measurement": "Kp", "setting": "[2]; regression equation with intercept 0.065, read-out: slope of Saliva concentration of lacosamide versus plasma concentration of lacosamide", "result": 1.17},
      {"measurement": "Kp", "setting": "[2]; steady state, about one to two hours after last administration, read-out: concentration of lacosamide in saliva relative to the concentration in plasma", "result": "~1.17"},
      {"measurement": "Cmax", "setting": "[3]; dose 100 mg bid", "result": "~5000", "unit": "ng/mL"},
      {"measurement": "Cmax", "setting": "[3]; dose 200 mg bid", "result": "~10000", "unit": "ng/mL"},
      {"measurement": "Cmax", "setting": "[3]; dose 300 mg bid", "result": "~15000", "unit": "ng/mL"},
      {"measurement": "Cmax", "setting": "[3]; dose 400 mg bid", "result": "~20000", "unit": "ng/mL"}
    ]}
  ]
}
